Test results taken from paper PMC7932029 (Journal of natural products, 2020).
Counter-ions that a name gives are not always drawn.

Experiments:
[1] = system: C57BL/6 mice; experiment: Tail flick thermal nociception assay; type: in vivo, mouse
[2] = system: C57BL/6 mice; experiment: Hot plate thermal nociception assay; type: in vivo, mouse
[3] = Partition coefficients of akuamma alkaloids in CCS solvent systems; type: physicochemical; settings: for Kacid: 10 mM HCl; for Kbase: 10 mM TEA
[4] = target: T1, μOR (Homo sapiens, UniProt P35372); experiment: PDSP primary radioligand displacement screen, μOR; type: binding; settings: 10 μM
[5] = target: HA-mouse μOR (Mus musculus, UniProt P42866); experiment: GloSensor cAMP inhibition assay, μOR; type: cell-based; settings: efficacy normalized to positive control DAMGO
[6] = target: FLAG-mouse κOR (Mus musculus, UniProt P33534); type: cell-based
[7] = target: T2, κOR (Homo sapiens, UniProt P41145); type: cell-based
[8] = system: Wistar rats; settings: p.o., cited from earlier work
[9] = target: T2, κOR; experiment: PDSP secondary binding assay, κOR
[10] = target: T2, κOR; type: binding
[11] = target: FLAG-mouse δOR (Mus musculus, UniProt P32300); experiment: GloSensor cAMP inhibition assay, δOR; type: cell-based; settings: efficacy normalized to positive control Leu-Enk
[12] = target: T1, μOR; experiment: PathHunter β-arrestin 2 recruitment assay, μOR
[13] = target: human δOR (Homo sapiens, UniProt P41143); experiment: PathHunter β-arrestin 2 recruitment assay, δOR; settings: highest concentration tested, in words
[14] = 5 mg/kg p.o., any of the timepoints tested

T1 sequence (P35372 whole entry): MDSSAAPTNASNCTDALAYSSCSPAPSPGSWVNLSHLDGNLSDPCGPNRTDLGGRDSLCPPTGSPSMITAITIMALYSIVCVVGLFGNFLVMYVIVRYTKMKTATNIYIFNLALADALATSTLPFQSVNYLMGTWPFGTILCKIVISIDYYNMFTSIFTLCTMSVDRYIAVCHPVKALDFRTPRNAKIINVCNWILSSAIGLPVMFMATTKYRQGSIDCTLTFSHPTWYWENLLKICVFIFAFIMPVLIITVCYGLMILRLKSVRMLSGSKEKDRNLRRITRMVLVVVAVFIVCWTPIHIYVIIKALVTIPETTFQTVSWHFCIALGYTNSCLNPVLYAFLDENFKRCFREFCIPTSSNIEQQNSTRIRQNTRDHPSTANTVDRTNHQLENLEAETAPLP
T2 sequence (P41145 whole entry): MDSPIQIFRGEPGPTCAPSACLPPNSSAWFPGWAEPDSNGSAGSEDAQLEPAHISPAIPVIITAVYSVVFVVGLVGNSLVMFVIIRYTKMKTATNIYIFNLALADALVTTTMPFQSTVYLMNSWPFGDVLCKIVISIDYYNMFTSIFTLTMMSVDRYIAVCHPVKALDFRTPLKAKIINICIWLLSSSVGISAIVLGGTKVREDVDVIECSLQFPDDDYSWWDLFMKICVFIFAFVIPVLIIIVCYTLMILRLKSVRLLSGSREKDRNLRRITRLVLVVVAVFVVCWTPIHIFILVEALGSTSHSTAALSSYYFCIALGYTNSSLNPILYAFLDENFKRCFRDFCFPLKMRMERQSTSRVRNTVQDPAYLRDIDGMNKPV
Sequence of HA-mouse μOR (P42866 whole entry): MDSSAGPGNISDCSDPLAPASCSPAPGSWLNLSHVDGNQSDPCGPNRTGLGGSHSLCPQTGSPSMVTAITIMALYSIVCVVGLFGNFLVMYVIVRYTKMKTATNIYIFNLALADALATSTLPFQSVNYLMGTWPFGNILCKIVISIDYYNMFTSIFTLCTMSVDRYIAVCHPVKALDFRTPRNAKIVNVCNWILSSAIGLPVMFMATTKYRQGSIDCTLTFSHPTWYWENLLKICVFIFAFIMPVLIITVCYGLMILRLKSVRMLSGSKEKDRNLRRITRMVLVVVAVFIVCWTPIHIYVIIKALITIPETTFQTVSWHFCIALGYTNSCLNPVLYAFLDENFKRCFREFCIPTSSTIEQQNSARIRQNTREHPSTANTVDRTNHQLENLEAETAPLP
Sequence of FLAG-mouse κOR (P33534 whole entry): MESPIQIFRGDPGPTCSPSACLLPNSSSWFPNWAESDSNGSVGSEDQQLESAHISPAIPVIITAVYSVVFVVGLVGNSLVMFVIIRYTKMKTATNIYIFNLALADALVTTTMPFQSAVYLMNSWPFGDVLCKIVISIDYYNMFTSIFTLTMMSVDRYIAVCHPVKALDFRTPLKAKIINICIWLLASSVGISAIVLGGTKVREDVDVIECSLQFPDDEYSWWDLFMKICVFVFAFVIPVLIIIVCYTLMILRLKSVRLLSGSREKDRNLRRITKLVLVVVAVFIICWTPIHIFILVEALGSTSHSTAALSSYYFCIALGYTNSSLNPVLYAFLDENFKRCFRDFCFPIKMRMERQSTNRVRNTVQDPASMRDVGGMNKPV
Sequence of human δOR (P41143 whole entry): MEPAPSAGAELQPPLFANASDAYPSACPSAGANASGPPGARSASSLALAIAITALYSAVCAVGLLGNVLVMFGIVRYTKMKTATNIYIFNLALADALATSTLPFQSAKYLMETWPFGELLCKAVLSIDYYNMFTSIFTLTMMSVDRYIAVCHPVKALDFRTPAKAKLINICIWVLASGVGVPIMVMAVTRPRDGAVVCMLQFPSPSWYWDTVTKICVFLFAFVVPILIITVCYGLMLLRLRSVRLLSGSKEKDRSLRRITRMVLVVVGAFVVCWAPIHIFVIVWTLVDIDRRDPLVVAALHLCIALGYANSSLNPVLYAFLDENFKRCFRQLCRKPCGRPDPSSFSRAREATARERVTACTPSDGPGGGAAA
Sequence of FLAG-mouse δOR (P32300 whole entry): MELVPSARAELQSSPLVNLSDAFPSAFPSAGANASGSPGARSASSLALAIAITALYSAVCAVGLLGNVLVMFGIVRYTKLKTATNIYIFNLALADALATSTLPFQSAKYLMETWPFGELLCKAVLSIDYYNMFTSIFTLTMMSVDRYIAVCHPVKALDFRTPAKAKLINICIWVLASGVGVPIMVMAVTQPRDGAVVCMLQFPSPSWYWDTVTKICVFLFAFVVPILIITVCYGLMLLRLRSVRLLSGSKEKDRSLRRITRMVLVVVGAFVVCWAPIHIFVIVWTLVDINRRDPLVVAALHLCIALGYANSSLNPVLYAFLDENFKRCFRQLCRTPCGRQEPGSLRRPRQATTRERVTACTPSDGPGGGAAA

Row | SMILES | Kacid ([3]; 1:1:1:1 Hex/EtOAc/MeOH/H2O) | Kbase ([3]; 1:1:1:1 Hex/EtOAc/MeOH/H2O) | Kacid ([3]; 1:1 EtOAc/H2O) | Kbase ([3]; 1:1 EtOAc/H2O) | Kbase ([3]; 2:2:3 MTBE/CH3CN/H2O) | Kacid ([3]; 3:1.5:4 MTBE/CH3CN/H2O) | Kbase ([3]; 3:1.5:4 MTBE/CH3CN/H2O) | Kacid ([3]; 3:7:3:7 Hex/EtOAc/MeOH/H2O) | Kbase ([3]; 3:7:3:7 Hex/EtOAc/MeOH/H2O) | displacement of [3H]-DAMGO [4] | cAMP α [5] | Kacid ([3]; 2:2:3 MTBE/CH3CN/H2O) | Binding pKi [10] | further results
1 | CN1CC[C@]23c4c5ccc(O)c4O[C@H]2[C@@H](O)C=C[C@H]3[C@H]1C5 [morphine, morphine sulfate pentahydrate, reference compound] |  |  |  |  |  |  |  |  |  |  |  |  |  | antinociception ([1]; 6 mg/kg s.c., 30 min): significant antinociception; antinociception ([2]; 6 mg/kg s.c., 30 min): significant antinociception
2 | C/C=C1/CN2CC[C@@]34c5ccccc5N(C)[C@]35OC[C@@]4(C(=O)OC)[C@H]1C[C@H]25 [Compound 3, pseudo-akuammigine] | <<0.01 | 2.71 | 0.10 | 51.9 | 87.0 | 0.25 | 30.9 | <<0.01 | 32.3 | displaced | 82 ± 7 |  |  | cAMP α [6]: 69 ± 8; β-arrestin 2 α [7]: 20 ± 20; antinociception [1, 14]: did not produce antinociception; antinociception ([1]; 5 mg/kg s.c., 30 minutes): minimal yet statistically significant antinociception; antinociception ([1]; 5 mg/kg s.c., 60 minutes): minimal yet statistically significant antinociception; antinociception ([1]; 10 mg/kg s.c., 30 minutes): failed to produce antinociception; antinociception [2, 14]: did not produce antinociception; antinociception ([2]; 5 mg/kg s.c., 30 minutes): minimal yet statistically significant antinociception; antinociception ([2]; 10 mg/kg s.c., 30 minutes): failed to produce antinociception; antinociception ([8]; Wistar rats, 5 mg/kg): antinociceptive; time of peak antinociceptive activity ([8]; rats): 180 min
3 | C/C=C1/CN2CC[C@]34C(=Nc5ccccc53)[C@@H]2C[C@@H]1[C@@]4(COC(C)=O)C(=O)OC [Compound 5, akuammiline] | <<0.01 | 0.23 | 0.03 | 28.2 | 5.61 | 0.05 | 6.82 | <<0.01 | 2.53 | significantly less displacement |  | 0.27 | −6.0 ± 0.1 (3) | Ki [9]: 400 nM
4 | C/C=C1/CN2CC[C@@]34c5cc(O)ccc5N(C)[C@]35OC[C@@]4(C(=O)OC)[C@H]1C[C@H]25 [Compound 1, akuammine] |  |  |  |  |  |  |  |  |  | displaced | 62 ± 6 |  |  | cAMP inhibition [6]: did not inhibit cAMP production; cAMP α [11]: 50 ± 35; β-arrestin 2 α [7]: 35 ± 6; antinociception ([1]; 3 mg/kg s.c., 110 minutes): minimal yet statistically significant antinociception; antinociception ([1]; 60 mg/kg s.c., 30 minutes): minimal yet statistically significant antinociception; antinociception ([1]; oral dosing, data not shown): no antinociception was measurable; antinociception ([2]; 3 mg/kg s.c., 110 minutes): minimal yet statistically significant antinociception; antinociception ([2]; 30 mg/kg s.c., 60 minutes): minimal yet statistically significant antinociception; antinociception ([2]; 60 mg/kg s.c., 30 minutes): minimal yet statistically significant antinociception; antinociception ([2]; oral dosing, data not shown): no antinociception was measurable
5 | C/C=C1/CN2[C@H]3Cc4c([nH]c5ccccc45)[C@@H]2C[C@@H]1[C@]3(CO)C(=O)OC [Compound 2, akuammidine] |  |  |  |  |  |  |  |  |  |  |  |  | −4.8 ± 0.1 (3) | antinociception ([1]; 10 mg/kg s.c., 50 minutes): minimal yet statistically significant antinociception; antinociception ([1]; 30 mg/kg s.c., 30 minutes): minimal yet statistically significant antinociception; antinociception ([1]; oral dosing, data not shown): no antinociception was measurable; antinociception ([2]; 3 mg/kg s.c., 110 minutes): minimal, yet statistically significant, antinociception; antinociception ([2]; oral dosing, data not shown): no antinociception was measurable; β-arrestin 2 recruitment ([12]; highest concentration tested, in words): minimal recruitment; β-arrestin recruitment [13]: minimal recruitment
6 | C[C@@H](NC(=O)[C@@H](N)Cc1ccc(O)cc1)C(=O)NCC(=O)N(C)[C@@H](Cc1ccccc1)C(=O)NCCO [DAMGO, (2S)-2-[[2-[[(2R)-2-[[(2S)-2-Amino-3-(4-hydroxyphenyl)propanoyl]amino]propanoyl]amino]acetyl]-methylamino]-N-(2-hydroxyethyl)-3-phenylpropanamide, reference compound] |  |  |  |  |  |  |  |  |  |  | 100 |  |  | β-arrestin 2 α ([12]; efficacy normalized to positive control DAMGO): 100
7 | C/C=C1/CN2[C@@H]3C[C@@]45c6ccccc6N[C@]4(O3)[C@@H]2C[C@@H]1[C@@]5(COC(C)=O)C(=O)OC [Compound 6, picraline] | <<0.01 | 0.82 | 0.03 | 16.09 | 11.4 | 0.10 | 17.4 | 0.01 | 7.29 | significantly less displacement |  | 0.56 |  | 
8 | C/C=C1/CN2CC[C@]34C(=C(C(=O)OC)[C@H]1C[C@H]23)Nc1ccccc14 [Compound 4, akuammicine] | <<0.01 | 1.63 | 0.02 | 222 | 27.7 | 0.14 | 64.1 | <<0.01 | 28.9 | displaced |  | 0.61 | −7.1 ± 0.1 (3) | Ki [9]: 170 nM
